Assays:
[1] = system: HCV genotype 4a-specific NS5A gene within the 1b-replicon; assay: Luciferase replicon assay, NS5A-intergenotypic stable cell line genotype 4a; type: cell-based; conditions: Hepatitis C virus, read-out: EC50 4a
From the text: (§1) The nucleotide sequences of the NS5A region of genotype 2a (GenBank Accession #AB047639), genotype 3a (GenBank Accession #D17763), and genotype 4a (GenBank Accession#DQ418788) were synthesized by an outside vendor. The NS5A region of each of these genotypes included the first 11 amino acids of the protease recognition sequence of genotype 1b, as well as the last 10 amino acids of genotype 1b. The NS5A gene cassettes were excised with site specific restriction endonucleases and ligated into a ZS11-luciferase genotype 1b backbone (backbone contains the genotype 1b NS3 protease, NS4a, NS4b, and NS5b coding regions) with similarly cut restriction enzyme sites. Thus, the newly constructed plasmid contains a genotype 2a-, 3a- or 4a-specific NS5A gene within the 1b-replicon.
(§2) These new intergenotypic plasmids were used to establish stable cell lines. RNA was generated from the NS5A intergenotypic plasmids and used in conjunction with a lipofectin reagent to transfect a cured Huh7 cell line. Transfected cells were selected for with G418. After selection has occurred the stable cell lines were propagated, tested for luciferase activity, and RT-PCR with genotype specific primers (either 1a, 2a, 3a, or 4a). Stable cell lines containing the intergenotypic replicon were then fully sequenced and analysed for proper expression of NS3, NS5A and NS5B proteins.
(§3) Drug titration analysis was performed using the luciferase replicon assay described herein.
(§4) The HCV luciferase replicon assay measures the ability of a test compound to inhibit HCV replication in cell culture after 3 days of treatment in a human hepatoma cell line (Huh-7) bearing a HCV replicon containing a luciferase-neomycin phosphotransferase fusion gene. The inhibition of HCV replication was measured by quantification of luciferase protein expression. Briefly, Huh-7 cells containing either the HCV genotype 1a H77 strain or genotype 1b Conl strain subgenomic luciferase replicon (H1a-luc or Zluc, respectively) were grown in DMEM containing glucose, L-glutamine and sodium pyruvate, 10% fetal bovine serum (FBS), 100 IU/mL penicillin, 100 μg/mL streptomycin, 2 mM GlutaMAX, non-essential amino acids and 0.25 (H1a-luc) or 0.5 (Zluc) mg/mL G418. GlutaMAX was obtained from Invitrogen, Corp.; all other media reagents were obtained from Mediatech, Inc. For dose-response testing, the cells were seeded in 96-well plates at 1×10^4 (H1a-luc) or 7.5×10^3 (Zluc) cells/well in a volume of 50 μL, and incubated at 37° C./5% CO2. Three hours after plating, 50 μL of ten 5-fold serial dilutions of compound were added, and cell cultures were incubated at 37° C./5% CO2 for 72 hours. In all cases, Huh-7 cells lacking the HCV replicon served as negative control. To assess luciferase expression, the media/compound was removed from the plates and ONE-glo Luciferase assay reagent (Promega) was added to each well. The assay plates were shaken for 3 minutes at room temperature and luciferase activity for each well was measured with a 1 sec read time on the Victor^3V multilabel counter using a 700 nm cut-off filter (Perkin Elmer). EC50 values were calculated from dose response curves from the resulting best-fit equations determined by Microsoft Excel and XLfit 4.1 software.

[2] = system: GS4.1 cells; assay: Cytotoxicity evaluation in GS4.1 cells (Cell Titer 96 AQueous One); type: cell-based, human; conditions: cellular viability
Description: For cytotoxicity evaluation, GS4.1 cells were treated with compounds as described above and cellular viability was monitored using the Cell Titer 96 AQueous One Solution Cell Proliferation Assay (Promega). CC50 values were determined from the % cytotoxicity versus concentration data with Tecan Magellan software as described above.

[3] = system: HCV genotype 3a-specific NS5A gene within the 1b-replicon; assay: Luciferase replicon assay, NS5A-intergenotypic stable cell line genotype 3a; type: cell-based; conditions: Hepatitis C virus, read-out: EC50 3a
From the text: as §1, §2, §3, §4

[4] = system: Huh-7 cells containing HCV Con1 subgenomic replicon (GS4.1 cells); assay: HCV replicon assay (NS5A ELISA); type: cell-based; conditions: Hepatitis C virus, Huh-7; GS4.1 cells, 72 hrs, NS5A ELISA; read-out: EC50
Description: General Procedure: Huh-7 cells containing HCV Con1 subgenomic replicon (GS4.1 cells) were grown in Dulbecco's Modified Eagle Medium (DMEM) supplemented with 10% fetal bovine serum (FBS), 2 mM L-glutamine, 110 mg/L sodium pyruvate, 1× non-essential amino acids, 100 U/mL penicillin-streptomycin, and 0.5 mg/mL G418 (Invitrogen). For dose-response testing, the cells were seeded in 96-well plates at 7.5×10^3 cells/well in a volume of 50 μL, and incubated at 37° C./5% CO2. Three hours after plating, 50 μL of ten 2-fold serial dilutions of compounds (highest concentration, 75 μM) were added, and cell cultures were incubated at 37° C./5% CO2 in the presence of 0.5% DMSO. Alternatively, compounds were tested at a single concentration of 15 μM. In all cases, Huh-7 cells lacking the HCV replicon served as negative control. The cells were incubated in the presence of compounds for 72 hrs after which they were monitored for expression of the NS5A protein by enzyme-linked immunosorbent assay (ELISA). For this, the plates were then fixed for 1 min with acetone/methanol (1:1, v/v), washed twice with phosphate-buffered saline (PBS), 0.1% Tween 20, blocked for 1 hr at room temperature with TNE buffer containing 10% FBS and then incubated for 2 hr at 37° C. with the anti-NS5A mouse monoclonal antibody A-236 (ViroGen) diluted in the same buffer. After washing three times with PBS, 0.1% Tween 20, the cells were incubated 1 hr at 37° C. with anti-mouse immunoglobulin G-peroxidase conjugate in TNE, 10% FBS. After washing as described above, the reaction was developed with O-phenylenediamine (Zymed). The reaction was stopped after 30 min with 2 N H2SO4, and absorbance was read at 492 nm using Sunrise Tecan spectrophotometer. EC50 values were determined from the % inhibition versus concentration data using a sigmoidal non-linear regression analysis based on four parameters with Tecan Magellan software.

[5] = system: HCV genotype 2a-specific NS5A gene within the 1b-replicon; assay: Luciferase replicon assay, NS5A-intergenotypic stable cell line genotype 2a; type: cell-based; conditions: Hepatitis C virus, read-out: EC50 2a
From the text: as §1, §2, §3, §4

[6] = Cytotoxicity evaluation in luciferase replicon cells (Cell Titer 96 AQueous One); type: cell-based, human; conditions: human; Table 1B, cellular viability
Description: For cytotoxicity evaluation, H1a-luc or Zluc cells were treated with compounds as described above and cellular viability was monitored using the Cell Titer 96 AQueous One Solution Cell Proliferation Assay (Promega). Plates were then read at 490 nm in a Victor^3V 1420 multilabel counter (Perkin Elmer) and CC50 concentrations were determined using Microsoft Excel and XLfit 4.1 software.

[7] = system: HCV genotype 1b Conl strain subgenomic luciferase replicon (Zluc); assay: Luciferase replicon assay, genotype 1b; type: cell-based; conditions: Hepatitis C virus, 72 h, read-out: EC50 1b
Description: as §4

COC(=O)N[C@H](C(=O)N1CCC[C@H]1c1ncc(-c2ccc(-c3csc4c(-c5cnc([C@@H]6CCCN6C(=O)[C@H](NC(=O)OC(C)(C)C)c6ccccc6)[nH]5)csc34)cc2)[nH]1)C(C)C [Compound A111, [(S)-1-((S)-2-{4-[4-(6-{(S)-2-[1-((R)-2-tert-butoxycarbonylamino-2-phenyl-acetyl)-pyrrolidin-2-yl]-3H-imidazol-4-yl}-thieno[3,2-b]thiophen-3-yl)-phenyl]-1H-imidazol-2-yl}-pyrrolidine-1-carbonyl)-2-methyl-propyl]-carbamic acid methyl ester]
EC50 [1]: < 0.1 nM
CC50 [2]: > 75000 nM
EC50 [3]: < 0.1 nM
EC50 [4]: < 1 nM
EC50 [5]: < 0.1 nM
CC50 at 72 h [6]: > 75000 nM
EC50 [7]: < 0.1 nM

COC(=O)N[C@H](C(=O)N1CCC[C@H]1c1ncc(-c2ccc(-c3cc4sc(-c5cnc([C@@H]6CCCN6C(=O)[C@@H](NC(=O)OC)C(C)C)[nH]5)cc4s3)cc2)[nH]1)C(C)C [Compound A126, [(S)-1-((S)-2-{5-[4-(5-{2-[(S)-1-((S)-2-Methoxycarbonylamino-3-methyl-butyryl)-pyrrolidin-2-yl]-3H-imidazol-4-yl}-thieno[3,2-b]thiophen-2-yl)-phenyl]-1H-imidazol-2-yl}-pyrrolidine-1-carbonyl)-2-methyl-propyl]-carbamic acid methyl ester]
EC50 [1]: < 0.1 nM
CC50 [2]: > 75000 nM
EC50 [3]: 1 to 10 nM
EC50 [4]: < 1 nM
EC50 [5]: 0.1 to 1 nM
CC50 at 72 h [6]: > 75000 nM
EC50 [7]: < 0.1 nM

COC(=O)N[C@H](C(=O)N1CCC[C@H]1c1ncc(-c2csc3c(-c4ccc5[nH]c([C@@H]6CCCN6C(=O)[C@@H](NC(=O)OC)C(C)C)nc5c4)csc23)[nH]1)C(C)C [Compound A173, ((S)-1-{(S)-2-[6-(6-{(S)-2-[1-((S)-2-methoxycarbonylamino-3-methyl-butyryl)-pyrrolidin-2-yl]-1H-imidazol-4-yl}-thieno[3,2-b]thiophen-3-yl)-1H-benzoimidazol-2-yl]-pyrrolidine-1-carbonyl}-2-methyl-propyl)-carbamic acid methyl ester]
EC50 [1]: 1 to 10 nM
EC50 [3]: 1 to 10 nM
EC50 [5]: 1 to 10 nM
CC50 at 72 h [6]: 10000 to 75000 nM
EC50 [7]: < 0.1 nM

COC(=O)N[C@H](C(=O)N1CCC[C@H]1c1ncc(-c2ccc(-c3csc4c(-c5ccc6[nH]c([C@@H]7CCCN7C(=O)[C@H](NC(=O)OC)c7ccccc7)nc6c5)csc34)cc2)[nH]1)C(C)C [Compound A172, [(S)-1-((S)-2-{5-[4-(6-{(S)-2-[1-((R)-2-methoxycarbonylamino-2-phenyl-acetyl)-pyrrolidin-2-yl]-3H-benzoimidazol-5-yl}-thieno[3,2-b]thiophen-3-yl)-phenyl]-1H-imidazol-2-yl}-pyrrolidine-1-carbonyl)-2-methyl-propyl]-carbamic acid methyl ester]
EC50 [1]: < 0.1 nM
EC50 [3]: < 0.1 nM
EC50 [5]: < 0.1 nM
CC50 at 72 h [6]: > 75000 nM
EC50 [7]: < 0.1 nM

COC(=O)N[C@H](C(=O)N1CCC[C@H]1c1ncc(-c2ccc(-c3csc4c(-c5ccc6[nH]c([C@@H]7CCCN7C(=O)[C@@H](NC(=O)OC)C(C)C)nc6c5)csc34)cc2)[nH]1)C(C)C [Compound A171, [(S)-1-((S)-2-{4-[4-(6-{2-[(S)-1-((S)-2-methoxycarbonylamino-3-methyl-butyryl)-pyrrolidin-2-yl]-3H-benzoimidazol-5-yl}-thieno[3,2-b]thiophen-3-yl)-phenyl]-1H-imidazol-2-yl}-pyrrolidine-1-carbonyl)-2-methyl-propyl]-carbamic acid methyl ester]
EC50 [1]: < 0.1 nM
EC50 [3]: 1 to 10 nM
EC50 [5]: 0.1 to 1 nM
CC50 at 72 h [6]: > 75000 nM
EC50 [7]: < 0.1 nM

COC(=O)N[C@H](C(=O)N1CCCC1c1nc(-c2cc3sc(-c4ccc(-c5cnc([C@@H]6CCCN6C(=O)[C@@H](c6ccccc6)N6CCCCC6)[nH]5)cc4)cc3o2)c[nH]1)C(C)C (stereo partly shown) [Compound A212]
EC50 [1]: < 0.1 nM
EC50 [3]: < 0.1 nM
EC50 [5]: < 0.1 nM
CC50 at 72 h [6]: 10000 to 75000 nM
EC50 [7]: < 0.1 nM

COC(=O)N[C@H](C(=O)N1CCCC1c1ncc(-c2cc3sc(-c4ccc(-c5cnc([C@@H]6CCCN6C(=O)[C@H](NC(=O)OC)c6ccccc6)[nH]5)cc4)cc3s2)[nH]1)C(C)C (stereo partly shown) [Compound A217]
EC50 [1]: < 0.1 nM
EC50 [3]: < 0.1 nM
EC50 [5]: < 0.1 nM
CC50 at 72 h [6]: > 75000 nM
EC50 [7]: < 0.1 nM

COC(=O)N[C@H](C(=O)N1CCC[C@H]1c1ncc(-c2ccc(-c3csc4c(-c5cnc([C@@H]6CCCN6C(=O)[C@H](NC(=O)OC)c6ccccc6)[nH]5)csc34)cc2)[nH]1)C(C)C [Compound A200, [(S)-1-((S)-2-{4-[4-(6-{2-[(S)-1-((R)-2-methoxycarbonylamino-2-phenyl-acetyl)-pyrrolidin-2-yl]-3H-imidazol-4-yl}-thieno[3,2-b]thiophen-3-yl)-phenyl]-1H-imidazol-2-yl}-pyrrolidine-1-carbonyl)-2-methyl-propyl]-carbamic acid methyl ester]
EC50 [1]: < 0.1 nM
EC50 [3]: < 0.1 nM
EC50 [5]: < 0.1 nM
CC50 at 72 h [6]: > 75000 nM
EC50 [7]: < 0.1 nM

COC(=O)N[C@H](C(=O)N1CCCC1c1nc(-c2cc3sc(-c4cnc([C@@H]5CCCN5C(=O)[C@@H](NC(=O)OC)C(C)C)[nH]4)cc3s2)c[nH]1)C(C)C (stereo partly shown) [Compound A101]
EC50 [1]: 1 to 10 nM
EC50 [3]: 1 to 10 nM
EC50 [5]: 1 to 10 nM
CC50 at 72 h [6]: > 75000 nM
EC50 [7]: < 0.1 nM
